# Columns and labels:
# male SHR = assay: Assay XIII: renal blood flow experiments in anesthetized SHR (renal denervation, bulbocapnine); format: in vivo, rat; details: for Mean arterial pressure / Renal Blood Flow: conjugate alone
# Experimental: This experiment was run to determine the roles of the renal sympathetic nerves and dopamine in the antihypertensive response to Ex. #859. For renal blood flow experiments, male SHR (11-13 weeks of age; Harlan Sprague-Dawley, Inc., Indianapolis, Ind.) were anesthetized (Inactin, 100 mg/kg, i.p.), catheters were implanted in a jugular vein and carotid artery, and an electromagnetic flow probe (Carolina Medical Electronics, Inc., King, N.C.) was placed on the left renal artery. Care was taken not to damage the renal nerves. A tracheal catheter maintained airway patency. The SHR were placed on a heated pad to maintain normal body temperature (Harvard Apparatus, South Natick, Mass.). In one group of SHR (n=6) surgical renal denervation was performed (prior to implanting the flow probe) through a left flank incision by surgically stripping the renal artery and vein of adventitia and cutting all visible renal nerve bundles under a dissection microscope (×25) and coating the vessels with a solution of 10% phenol in 95% ethanol, as previously described (9,10). In a second group of SHR (n=6) bulbocapnine (a dopamine receptor antagonist) was infused at 100 μg/kg/min starting 30 minutes prior to injection of Ex. #859 (50 mg/kg, i.v.) and continued for the duration of the study. In a third group of SHR (n=6) Ex. #859 (50 mg/kg, i.v.) was administered alone. In a final group of SHR (n=6) vehicle (0.9% NaCl) was administered. SHR were allowed 60 minutes for stabilization after surgery. After the stabilization period, 15 minutes of control mean arterial pressure and renal blood flow were obtained. Mean arterial pressure and renal blood flow were recorded for one hour.
# conscious SHR = assay: Assay XIII: antihypertensive experiments in conscious SHR (renal denervation, bulbocapnine); format: in vivo, rat
# Experimental: For antihypertensive experiments, male SHR (11-13 weeks of age; Harlan Sprague-Dawley, Inc.; Indianapolis, Ind.) were habituated for 3-4 days in individual experimental cages, which became their home cages for the duration of the study. Five to seven days before experimentation, SHR were anesthetized with chloral hydrate (400 mg/kg; Sigma Chemical Co., St. Louis, Mo.) and catheters were implanted into a femoral artery and vein. The catheters were led to the back of the neck, exteriorized, and channeled through a tether and swivel system (Alice King Chatham, Los Angeles, Calif.). Surgical renal denervation was performed as above. […] In separate groups of conscious SHR, Ex. #859 (5 mg/kg/hr, n=6) was infused alone, Ex. #859 (5 mg/kg/hr, n=6) was coinfused with bulbocapnine (100 μg/kg/min), or Ex. #859 (10 mg/kg/hr, n=6) was infused 5-7 days after surgical renal denervation. Surgical renal denervation was performed as described above. After a one hour control measure of mean arterial pressure, compounds were infused for four hours and mean arterial pressure was measured continuously.
# [1] = system: DOCA hypertensive micropigs; assay: Assay XIV: chronic in vivo effects in DOCA hypertensive micropigs; set-up: species or system micropig; details: for Mean arterial pressure: 5 mg/kg/hr infusion
# Experimental: This study examines the efficacy of Ex. #859 in deoxycorticosterone acetate ([…]) hypertensive micropigs (Charles River; 6 months of age). Micropigs were made hypertensive by implanting subcutaneously DOCA strips (100 mg/kg) under isoflurane anesthesia. Hypertension stabilizes after one month. Mean arterial pressure was measured using a Gould chart recorder and Statham P23dB transducers. After one month Ex. #859 conjugate was infused for three days at 5 mg/kg/hr).
# [2] = system: gamma-glutamyl transpeptidase and acylase I; assay: Assay IV: metabolism of conjugate by purified transpeptidase and acylase; format: in vitro ADME
# Experimental: […] The resulting suspension, diluted with buffer, was incubated in the presence of the Ex. #859 conjugate at 37° C. At various times aliquots were removed, deproteinized with an equal volume of cold trichloroacetic acid (25%) and centrifuged. The supernatant was injected onto a C-18 reverse-phase HPLC column and eluted isocratically with a mixture of acetonitrile and water (20:80 v/v) containing trifluoroacetic acid (0.05%). Eluted compounds were monitored by absorbance at 254 nm and compared to standards run under identical conditions. In the assay using pure kidney enzyme homogenate, the Ex. #859 conjugate was also incubated under the same conditions as described except that 5 mg of gamma-glutamyl transpeptidase (Sigma, 23 units/mg) and 10 mg of acylase I (Sigma, 4800 units/mg) were added in place of the homogenate. Analysis by HPLC was performed in a manner identical to that used for the kidney homogenate experiment.
# anesthetized dog = assay: Assay XI: intrarenal administration of fusaric acid in anesthetized dogs (MAP, RBF, UNaV); format: in vivo
# [3] = Dog #1, intrarenal infusion 1.25 mg/kg/min
# [4] = Dog #2, intrarenal infusion 0.75 mg/kg/min
# [5] = anesthetized dog, bolus intrarenal 0.5, 1.0 and 5.0 mg/kg
structure (smiles),measurement,setting,value
"CCCCc1ccc(C(=O)NNC(=O)CCC(NC(C)=O)C(=O)O)nc1 [Ex. #859, N-acetyl-L-glutamic acid, 5-[(5-butyl-2-pyridinyl)-carbonyl]hydrazide]",melting point,,191.5 to 192 °C
same,effect on renal blood flow,"male SHR; anesthetized SHR, 50 mg/kg i.v. after surgical renal denervation",not changed
same,effect on renal blood flow,"male SHR; anesthetized SHR, 50 mg/kg i.v. alone, 60 minutes after injection",increased
same,effect on renal blood flow,"male SHR; anesthetized SHR, 50 mg/kg i.v. during bulbocapnine infusion (100 μg/kg/min)",not changed
same,effect on mean arterial pressure,"male SHR; anesthetized SHR, 50 mg/kg i.v., all groups",not changed
same,Mean arterial pressure,male SHR; time 0 minutes,149 ± 8 mmHg
same,Renal Blood Flow,male SHR; time 0 minutes,7 ± 2 mL/min
same,Mean arterial pressure,male SHR; time 60 minutes,149 ± 7 mmHg
same,Renal Blood Flow,male SHR; time 60 minutes,12 ± 2 mL/min
same,Mean arterial pressure,"conscious SHR; BULBO: 5 mg/kg/hr coinfused with bulbocapnine 100 μg/kg/min, 0 hours",168 ± 8
same,Mean arterial pressure,"conscious SHR; BULBO: 5 mg/kg/hr coinfused with bulbocapnine 100 μg/kg/min, 1 hour",158 ± 6
same,Mean arterial pressure,"conscious SHR; BULBO: 5 mg/kg/hr coinfused with bulbocapnine 100 μg/kg/min, 2 hours",148 ± 5
same,Mean arterial pressure,"conscious SHR; BULBO: 5 mg/kg/hr coinfused with bulbocapnine 100 μg/kg/min, 3 hours",140 ± 7
same,Mean arterial pressure,"conscious SHR; BULBO: 5 mg/kg/hr coinfused with bulbocapnine 100 μg/kg/min, 4 hours",140 ± 5
same,Mean arterial pressure,"conscious SHR; DNX: 10 mg/kg/hr after surgical renal denervation, 0 hours",157 ± 3
same,Mean arterial pressure,"conscious SHR; DNX: 10 mg/kg/hr after surgical renal denervation, 1 hour",155 ± 4
same,Mean arterial pressure,"conscious SHR; DNX: 10 mg/kg/hr after surgical renal denervation, 2 hours",53 ± 4
same,Mean arterial pressure,"conscious SHR; DNX: 10 mg/kg/hr after surgical renal denervation, 3 hours",150 ± 4
same,Mean arterial pressure,"conscious SHR; DNX: 10 mg/kg/hr after surgical renal denervation, 4 hours",147 ± 4
same,effect on mean arterial pressure over a four hour period,"conscious SHR; conscious SHR, 5 mg/kg/hr coinfused with bulbocapnine (100 μg/kg/min)",lowered mean arterial pressure similar to Ex. #859 alone
same,antihypertensive response,"conscious SHR; conscious SHR, 10 mg/kg/hr, 5-7 days after surgical renal denervation",prevented the antihypertensive response
same,effect on mean arterial pressure over a four hour period,"conscious SHR; conscious SHR, continuous infusion 5 mg/kg/hr alone",antihypertensive
same,Mean arterial pressure,"conscious SHR; infused alone 5 mg/kg/hr, 0 hours",177 ± 6
same,Mean arterial pressure,"conscious SHR; infused alone 5 mg/kg/hr, 1 hour",172 ± 6
same,Mean arterial pressure,"conscious SHR; infused alone 5 mg/kg/hr, 2 hours",170 ± 7
same,Mean arterial pressure,"conscious SHR; infused alone 5 mg/kg/hr, 3 hours",164 ± 7
same,Mean arterial pressure,"conscious SHR; infused alone 5 mg/kg/hr, 4 hours",154 ± 6
same,Mean arterial pressure,[1]; Day 1,151 ± 4
same,Mean arterial pressure,[1]; Day 2,132 ± 4
same,Mean arterial pressure,[1]; Day 3,119 ± 3
same,effect on mean arterial pressure,"[1]; conscious DOCA hypertensive micropigs, infusion 5 mg/kg/hr for three days",normalized mean arterial pressure
same,Fusaric Acid formed from conjugate,"[2]; 3 h, pH 7.4",0.00 µg/mL
same,Fusaric Acid formed from conjugate,"[2]; 3 h, pH 8.1",0.00 µg/mL
same,Fusaric Acid formed from conjugate,"[2]; 24 h, pH 7.4",2.56 µg/mL
same,Fusaric Acid formed from conjugate,"[2]; 24 h, pH 8.1",1.12 µg/mL
same,Fusaric Acid formed from conjugate,"[2]; 72 h, pH 7.4",12.15 µg/mL
same,Fusaric Acid formed from conjugate,"[2]; 72 h, pH 8.1",4.46 µg/mL
same,Fusaric Acid formed from conjugate,"[2]; 96 h, pH 7.4",15.44 µg/mL
same,Fusaric Acid formed from conjugate,"[2]; 96 h, pH 8.1",5.22 µg/mL
same,Fusaric Acid formed from conjugate,"[2]; 120 h, pH 7.4",18.75 µg/mL
same,Fusaric Acid formed from conjugate,"[2]; 120 h, pH 8.1",6.55 µg/mL
same,species present after incubation,[2]; purified gamma-glutamyl transpeptidase and acylase I,only fusaric acid and the unreacted compound being present
"CCCCc1ccc(C(=O)O)nc1 [Fusaric Acid, 5-n-butylpicolinic acid]",MAP,anesthetized dog; [3],136 mm Hg
same,UNa V,anesthetized dog; [3],82 μEqlmin
same,Δ RBF,anesthetized dog; [3],240 mL/min
same,MAP,anesthetized dog; [4],148 mm Hg
same,UNa V,anesthetized dog; [4],13 μEqlmin
same,Δ RBF,anesthetized dog; [4],315 mL/min
same,effect on mean arterial pressure,anesthetized dog; [5],no significant effect
same,effect on renal blood flow,anesthetized dog; [5],dose-related increases
same,effect on urinary sodium excretion,anesthetized dog; [5],no significant effect
same,"effect on MAP, RBF and UNaV","anesthetized dog; anesthetized dog, bolus intrarenal injection 0.1 mg/kg",no effect on any measure
same,MAP,anesthetized dog; intrarenal bolus 0.1 mg/kg,136 mm Hg
same,UNa V,anesthetized dog; intrarenal bolus 0.1 mg/kg,21.2 μEq/min
same,Δ RBF,anesthetized dog; intrarenal bolus 0.1 mg/kg,0 mL/min
same,MAP,anesthetized dog; intrarenal bolus 0.5 mg/kg,136 mm Hg
same,UNa V,anesthetized dog; intrarenal bolus 0.5 mg/kg,23.8 μEq/min
same,Δ RBF,anesthetized dog; intrarenal bolus 0.5 mg/kg,+46 ml/min
same,MAP,anesthetized dog; intrarenal bolus 1.0 mg/kg,138 mm Hg
same,UNa V,anesthetized dog; intrarenal bolus 1.0 mg/kg,21.1 μEq/min
same,Δ RBF,anesthetized dog; intrarenal bolus 1.0 mg/kg,+58 ml/min
same,MAP,anesthetized dog; intrarenal bolus 5.0 mg/kg,140 mm Hg
same,UNa V,anesthetized dog; intrarenal bolus 5.0 mg/kg,34.8 μEq/min
same,Δ RBF,anesthetized dog; intrarenal bolus 5.0 mg/kg,+132 ml/min

# Source: patent US20030220521A1, “Renal-selective prodrugs for control of renal sympathetic nerve activity in the treatment of hypertension” (G.D. Searle & Co., priority 1989, published 2003)
